Here are results for twelve compounds from patent US20030199692A1, “Propanoic acid derivatives that inhibit the binding of integrins to their receptors” (priority 1999, published 2003).

T1 sequence (P13612 34-1032): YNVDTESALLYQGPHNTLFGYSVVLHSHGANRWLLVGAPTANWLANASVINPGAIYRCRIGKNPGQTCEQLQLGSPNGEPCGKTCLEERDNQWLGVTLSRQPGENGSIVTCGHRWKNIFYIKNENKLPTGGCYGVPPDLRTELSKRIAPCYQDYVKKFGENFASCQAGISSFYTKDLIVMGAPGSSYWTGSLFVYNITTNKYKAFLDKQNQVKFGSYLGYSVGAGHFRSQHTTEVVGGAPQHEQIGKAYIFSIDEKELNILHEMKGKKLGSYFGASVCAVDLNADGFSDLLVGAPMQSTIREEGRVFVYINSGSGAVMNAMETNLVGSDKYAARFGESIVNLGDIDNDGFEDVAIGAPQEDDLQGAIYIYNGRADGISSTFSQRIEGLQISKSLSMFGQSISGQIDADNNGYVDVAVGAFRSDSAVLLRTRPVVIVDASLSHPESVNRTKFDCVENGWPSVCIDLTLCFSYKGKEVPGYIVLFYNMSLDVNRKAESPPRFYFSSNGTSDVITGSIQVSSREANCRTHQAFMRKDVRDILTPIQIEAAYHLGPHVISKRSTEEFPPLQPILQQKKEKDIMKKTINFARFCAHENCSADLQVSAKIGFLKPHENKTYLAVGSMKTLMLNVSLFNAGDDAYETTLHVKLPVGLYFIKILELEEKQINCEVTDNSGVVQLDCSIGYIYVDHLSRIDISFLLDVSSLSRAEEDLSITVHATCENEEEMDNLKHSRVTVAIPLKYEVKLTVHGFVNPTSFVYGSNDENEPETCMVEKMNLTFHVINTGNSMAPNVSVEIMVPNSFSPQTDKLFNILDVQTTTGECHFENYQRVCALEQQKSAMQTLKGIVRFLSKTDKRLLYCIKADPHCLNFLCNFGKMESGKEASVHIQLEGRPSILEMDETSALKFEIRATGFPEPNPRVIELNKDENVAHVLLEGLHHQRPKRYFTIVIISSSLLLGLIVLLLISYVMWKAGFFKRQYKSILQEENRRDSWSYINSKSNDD
T1 sequence (P05556 21-798): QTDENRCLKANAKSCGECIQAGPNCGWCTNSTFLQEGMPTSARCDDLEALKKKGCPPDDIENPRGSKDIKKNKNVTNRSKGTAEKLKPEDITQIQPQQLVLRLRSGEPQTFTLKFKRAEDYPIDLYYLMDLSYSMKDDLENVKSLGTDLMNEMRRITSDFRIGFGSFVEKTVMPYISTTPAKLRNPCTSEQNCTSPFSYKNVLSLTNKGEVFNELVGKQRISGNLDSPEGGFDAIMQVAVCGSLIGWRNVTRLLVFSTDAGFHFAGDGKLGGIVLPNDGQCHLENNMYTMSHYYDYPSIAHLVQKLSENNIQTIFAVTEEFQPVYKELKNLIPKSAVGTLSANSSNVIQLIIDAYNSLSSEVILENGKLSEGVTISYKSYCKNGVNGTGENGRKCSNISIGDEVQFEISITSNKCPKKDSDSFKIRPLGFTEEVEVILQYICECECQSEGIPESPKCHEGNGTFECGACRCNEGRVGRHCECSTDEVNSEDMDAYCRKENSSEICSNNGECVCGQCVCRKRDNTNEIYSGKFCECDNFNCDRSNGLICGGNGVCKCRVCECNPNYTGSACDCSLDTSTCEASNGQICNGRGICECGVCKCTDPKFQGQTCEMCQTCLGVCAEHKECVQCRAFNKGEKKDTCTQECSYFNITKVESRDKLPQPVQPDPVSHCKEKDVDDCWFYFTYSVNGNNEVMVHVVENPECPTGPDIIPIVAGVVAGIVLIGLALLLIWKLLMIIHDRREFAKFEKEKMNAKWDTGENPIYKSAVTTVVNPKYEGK

The assay has as its target T1, α4β1 integrin (Homo sapiens, UniProt P05556+P13612).
T1 construct: endogenous in cells; host or cells: Ramos cells
The assay can be described thus: Inhibition of adhesion of calcein AM-labeled Ramos cells to CS1 (fibronectin) peptide-conjugated ovalbumin. In kind it is cell-based. The following applies: Table 4; Ramos cell adhesion to CS1-conjugated ovalbumin, 30 minutes at 37° C. On the procedure:
The ability of compounds of the present invention to inhibit binding is determined by a procedure in which a 26-amino acid peptide containing the CS1 sequence of fibronectin with an N-terminal Cys ([…]) was coupled to maleimide activated ovalbumin. Bovine serum albumin (BSA) and CS1 conjugated ovalbumin were coated onto 96-well polystyrene plates at 0.5 mg/ml in TBS (50 mM Tris, pH 7.5; 150 mM NaCl) at 4° C. for 16 hours. The plates were washed three times with TBS and blocked with TBS containing 3% BSA at room temperature for 4 hours. Blocked plates were washed three times in binding buffer (TBS; 1 mM MgCl2; 1 mM CaCl2; 1 mM MnCl2) prior to assay. Ramos cells fluorescently labeled with calcein AM were resuspended in binding buffer (10^7 cells/ml) and diluted 1:2 with same buffer with or without compound. The cells were added immediately to the wells (2.5×10^5 cells/well) and incubated for 30 minutes at 37° C. Following three washes with binding buffer, adherent cells were lysed and quantitated using a fluorometer. IC50 is defined as the dose required to give 50% inhibition. MS in Table 3 stands for Mass Spec. nd stands for not determined in the Tables. A stands for inhibition in Table 2, and the percent inhibition indicates the inhibition of cell adhesion when compound is included in the assay at a concentration of 100 μM. The lower the IC50 value and the greater the percentage of inhibition, the more efficient the compound is at prevention of cell adhesion.
As usually defined, the IC50 is the concentration that gives 50% inhibition. On to `CCCCC(C(=O)N[C@@H](CC(=O)O)c1cccc(F)c1)n1cc(C)cc(Cc2ccccc2)c1=O` (stereo partly drawn) [(3S)-3-(3-fluorophenyl)-3-({2-[5-methyl-2-oxo-3-(phenylmethyl)-1(2H)-pyridinyl]hexanoyl}amino)propanoic acid], for which the half-maximal inhibitory concentration (IC50) is 13 nM.
With `CCCCC(C(=O)N[C@@H](CC(=O)O)c1cccc(OC(C)C)c1)n1ccc(CCc2ccccc2)cc1=O` (stereo partly drawn) [(3S)-3-(3-isopropoxyphenyl)-3-({2-[2-oxo-4-(2-phenylethyl)pyridin-1(2H)-yl]hexanoyl}amino)propanoic acid] the figure was 95 nM.
The figure for `CCCCC(C(=O)N[C@@H](CC(=O)O)c1cccc(OC(C)C)c1)n1cc(C)cc(Cc2ccccc2OC)c1=O` (stereo partly drawn) [(3S)-3-(3-isopropoxyphenyl)-3-({2-[3-(2-methoxybenzyl)-5-methyl-2-oxopyridin-1(2H)-yl]hexanoyl}amino)propanoic acid] is 4 nM; for `CCCCC(C(=O)N[C@@H](CC(=O)O)c1ccc(CC)cc1)n1cc(C)cc(Cc2ccccc2)c1=O` (stereo partly drawn) [(3S)-3-(4-ethylphenyl)-3-({2-[5-methyl-2-oxo-3-(phenylmethyl)-1(2H)-pyridinyl]hexanoyl}amino)propanoic acid] it is 40 nM; for `CCCCC(C(=O)N[C@@H](CC(=O)O)c1cccc(OC(C)C)c1)n1cc(C)cc(Cc2c(Cl)cccc2Cl)c1=O` (stereo partly drawn) [(3S)-3-({2-[3-(2,6-dichlorobenzyl)-5-methyl-2-oxopyridin-1(2H)-yl]hexanoyl}amino)-3-(3-isopropoxyphenyl)propanoic acid] it is 275 nM.
With `CCCCC(C(=O)N[C@@H](CC(=O)O)c1cccc(OC(C)C)c1)n1cc(C)cc(Cc2ccccc2Cl)c1=O` (stereo partly drawn) [(3S)-3-({2-[3-(2-chlorobenzyl)-5-methyl-2-oxopyridin-1(2H)-yl]hexanoyl}amino)-3-(3-isopropoxyphenyl)propanoic acid] the figure was 5 nM.
As for `CCCCC(C(=O)N[C@@H](CC(=O)O)c1ccc(C)cc1)n1cc(C)cc(Cc2ccccc2Cl)c1=O` (stereo partly drawn) [(3S)-3-({2-[3-(2-chlorobenzyl)-5-methyl-2-oxopyridin-1(2H)-yl]hexanoyl}amino)-3-(4-methylphenyl)propanoic acid], the IC50 is 15 nM.
With `CCCCC(C(=O)N[C@@H](CC(=O)O)c1ccccc1)n1cc(C)cc(Cc2ccccc2Cl)c1=O` (stereo partly drawn) [(3S)-3-({2-[3-(2-chlorobenzyl)-5-methyl-2-oxopyridin-1(2H)-yl]hexanoyl}amino)-3-phenylpropanoic acid] the figure was 12 nM; with `CCCCC(C(=O)N[C@@H](CC(=O)O)c1cccc(OC(C)C)c1)n1cc(C)cc(Cc2ccccc2OCC)c1=O` (stereo partly drawn) [(3S)-3-({2-[3-(2-ethoxybenzyl)-5-methyl-2-oxopyridin-1(2H)-yl]hexanoyl}amino)-3-(3-isopropoxyphenyl)propanoic acid], 19 nM.
With `CCCCC(C(=O)N[C@@H](CC(=O)O)c1cccc(OC(C)C)c1)n1cc(C)cc(Cc2cccc(Cl)c2)c1=O` (stereo partly drawn) [(3S)-3-({2-[3-(3-chlorobenzyl)-5-methyl-2-oxopyridin-1(2H)-yl]hexanoyl}amino)-3-(3-isopropoxyphenyl)propanoic acid] the figure was 20 nM; with `CCCCC(C(=O)N[C@@H](CC(=O)O)c1cccc(OCCC)c1)n1cc(C)cc(Cc2cccc(Cl)c2)c1=O` (stereo partly drawn) [(3S)-3-({2-[3-(3-chlorobenzyl)-5-methyl-2-oxopyridin-1(2H)-yl]hexanoyl}amino)-3-(3-propoxyphenyl)propanoic acid], 23 nM; with `CCCCC(C(=O)N[C@@H](CC(=O)O)c1cccc(OC(C)C)c1)n1cc(C)cc(Cc2cccc(Cl)c2Cl)c1=O` (stereo partly drawn) [(3S)-3-({2-[3-[(2,3-dichlorophenyl)methyl]-5-methyl-2-oxo-1(2H)-pyridinyl]hexanoyl}amino)-3-{3-[(1-methylethyl)oxy]phenyl}propanoic acid], 68 nM.
